Results as given in patent publication US20150065421A1, “BASAL INSULIN THERAPY” (SANOFI, priority 2012, published 2015).

Key:
[1] = system: people at high risk for vascular disease with either IFG, IGT, or early type 2 diabetes; assay: ORIGIN trial: microvascular outcomes; assay type: in vivo, human
Description: The composite microvascular outcome will be met by the development of any of the following: • Doubling of serum creatinine from study baseline (screening value) • Albuminuria progression, defined as a change from normoalbuminuria to either microalbuminuria or clinical proteinuria, or from microalbuminuria to clinical proteinuria using the definitions in the attached table.
• Requirement for renal replacement therapy (eg, dialysis, renal transplant), or death due to renal failure • Use of retinal photocoagulation or vitrectomy for diabetic retinopathy, including macular edema
There were 2 co-primary composite CV outcomes. The first was CV death, non-fatal MI or non-fatal stroke, and the second was a composite of any of these events or a revascularization procedure or hospitalization for heart failure. Secondary outcomes included a composite microvascular outcome comprising a doubling of serum creatinine from baseline, progression of albuminuria category from normoalbuminuria or microalbuminuria to microalbuminuria or overt nephropathy, renal replacement therapy, renal death, retinal photocoagulation or vitrectomy for retinopathy. They also included new type 2 diabetes developing by the time of the 1st post-trial oral glucose tolerance test in participants without baseline diabetes, and all-cause mortality. Other outcomes included incident cancers, CV hospitalizations, and angina. Cardiovascular and cancer outcomes were reviewed by adjudicators masked to treatment allocation. Episodes of hypoglycaemia since the prior visit were recorded at each visit. Symptomatic hypoglycemia was classified as confirmed if a concomitant recorded capillary glucose level was <3 mmol/L (54 mg/dL). Severe hypoglycemia was defined as hypoglycemia that required assistance plus either prompt recovery with glucose or glucagon or a documented capillary glucose ≦2.0 (36 mg/dL). New diabetes was diagnosed if 2 consecutive FPG levels within a 4-month period were ≧7 mM (126 mg/dL) during the trial; a diagnosis of diabetes was made by a physician and a pharmacologic antidiabetic agent was being taken and there was evidence of either a FPG ≧7 mM (126 mg/dL) or any glucose value ≧11.1 mM (200 mg/dL); either 1 or more capillary glucose levels were ≧11.1 mM (200 mg/dl) and a lab-measured FPG was ≧7 mmol/l (126 mg/dl) or a lab measured random glucose level was ≧11.1 mM (200 mg/dl) during down-titration of glargine insulin; or any FPG was ≧7 mM (126 mg/dl) or 2 hour plasma glucose was ≧11.1 mM (200 mg/dl) during the first oral glucose tolerance test.
The microvascular outcome was a composite of: laser surgery or vitrectomy or blindness for diabetic retinopathy; development of renal death or the need for renal replacement treatment (dialysis or transplantation); doubling of serum creatinine; or progression from lesser to greater severity of microalbuminuria. The last 2 components are laboratory-based—the others are “clinical” microvascular outcomes.

[2] = system: people with IGT, IFG, or early diabetes; assay: Double-blind pilot study HOE901/1021 (safety and feasibility); assay type: in vivo, human
Description: The use of exogenous insulin in an IGT, IFG, or diabetic population might confer several potential metabolic and cardiovascular benefits: • 1. The fact that it is finely titratable and durable (compared to oral antidiabetic agents) may translate into a powerful effect to delay the exposure of target tissues to toxic levels of glycemia. • 2. Insulin-mediated suppression of circulating free fatty acids (FFA) will: • reduce VLDL synthesis and improve lipoprotein patterns (i.e. lower triglycerides, and increase HDL-C); • reduce lipotoxicity at the level of the beta cell and at insulin's target tissues; • reduce obligatory oxidative metabolism in ischemic myocardium. • 3. Exogenous insulin will prevent metabolic decompensation due to stress, that is either mild and frequent (i.e. daily stresses and minor illness or injury), or severe and less common (i.e. major injury, illness, surgery, vascular events). These stress events would normally suppress endogenous insulin responses even when a pharmacologic secretagogue or sensitizer is present; exogenous, injected insulin cannot be suppressed in such a way. • 4. Nitric oxide-mediated vasodilation and endothelial function are abnormal in those with IFG, IGT, or diabetes. Additionally, markers of endothelial inflammation are increased. These abnormalities are all improved by insulin treatment. […]

[3] = patients with a history of atrial fibrillation at baseline

## (Gly A21) Arg (B31) Arg (B32) human insulin [insulin glargine]
[1]; glargine group
  Albumin Prog, N (%): 1154
  Albumin Prog, Rate: 3.3
  Clin Microvasc, N (%): 190
  Clin Microvasc, Rate: 0.5
  Double Cr, N (%): 94
  Double Cr, Rate: 0.25
  Laser/Vitrect, N (%): 79
  Laser/Vitrect, Rate: 0.22
  Microvascular, N (%): 1280
  Microvascular, Rate: 3.7
  Renal Failure, N (%): 36
  Renal Failure, Rate: 0.1
[1]; glargine vs standard, P 0.016
  Laser/Vitrect, HR (95% CI): 0.59 (0.38, 0.91)
[1]; glargine vs standard, P 0.038
  Clin Microvasc, HR (95% CI): 0.74 (0.56, 0.98)
[1]; glargine vs standard, P 0.066
  Microvascular, HR (95% CI): 0.90 (0.81, 1.01)
[1]; glargine vs standard, P 0.09
  Double Cr, HR (95% CI): 0.70 (0.46, 1.06)
[1]; glargine vs standard, P 0.17
  Albumin Prog, HR (95% CI): 0.92 (0.82, 1.04)
[1]; glargine vs standard, P 0.46
  Renal Failure, HR (95% CI): 1.27 (0.67, 2.39)
[1]; insulin glargine vs standard care
  microvascular outcomes, difference to standard care: no statistically significant difference
[1]; [3]
  RR for Clinical Microvascular outcomes (non-laboratory-based): 0.42 (0.19-0.91)
  RR for microvascular outcome: 0.74 (0.55-0.98)
[1]; patients with baseline A1c<6.4%, not significant
  relative risk (RR) for microvascular outcome: 1.08
[1]; patients with baseline A1c≧6.4%, statistically significant
  relative risk (RR) for microvascular outcome: 0.88 (0.79-0.98)
[2]; all episodes
  severity of hypoglycemia episodes: mild
[2]; of 13 insulin glargine subjects, two weeks, calorie-restricted diet, titrated to FPG 80-95 mg/dL
  subjects who experienced hypoglycemia: Two
